Where two headings read alike, the source gives them in different places.
How the values were obtained:
GSK3α = GSK3α (Homo sapiens (Human), UniProt P49840); experiment: GSK 3α enzyme inhibition (FRET, Z-LYTE; Method 2); type: biochemical
Protocol: The enzyme inhibitory activities of compounds disclosed herein are determined by FRET using synthetic peptides labelled with both donor and acceptor fluorophores (Z-LYTE, Invitrogen Ltd., Paisley, UK).
The inhibitory activities of compounds of the invention against the GSK 3α enzyme isoform (Invitrogen), are evaluated by determining the level of activation/phosphorylation of the target peptide. The GSK3-α protein (500 ng/mL, 2.5 μL) is mixed with the test compound (2.5 μL at either 4 μg/mL, 0.4 μg/mL, 0.04 μg/mL, or 0.004 μg/mL) for 2 hr at RT. The FRET peptide (8 μM, 2.5 μL), which is a phosphorylation target for GSK3α, and ATP (40 μM, 2.5 μL) are then added to the enzyme/compound mixture and the resulting mixture incubated for 1 hr. Development reagent (protease, 5 μL) is added for 1 hr prior to detection in a fluorescence microplate reader (Varioskan® Flash, ThermoFisher Scientific).
In all cases, the site-specific protease cleaves non-phosphorylated peptide only and eliminates the FRET signal. Phosphorylation levels of each reaction are calculated using the ratio of coumarin emission (donor) over fluorescein emission (acceptor), for which high ratios indicate high phosphorylation and low ratios indicate low phosphorylation levels. The percentage inhibition of each reaction is calculated relative to non-inhibited control and the 50% inhibitory concentration (IC50 value) is then calculated from the concentration-response curve.
This method follows the same steps as Method 1 above, but utilises a shorter period of mixing of the test compound (105 minutes instead of 2 hours) with the GSK3-α protein.

PBMCs = experiment: LPS-induced TNFα/IL-8 release in PBMC cells; type: cell-based; settings: Homo sapiens, LPS-stimulated PBMCs
Protocol: Peripheral blood mononuclear cells (PBMCs) from healthy subjects are separated from whole blood using a density gradient (Lymphoprep, Axis-Shield Healthcare). The PBMCs are seeded in 96 well plates and treated with compounds at the desired concentration for 2 hours before addition of 1 ng/mL LPS (Escherichia Coli 0111:B4 from Sigma Aldrich) for 24 hours under normal tissue culture conditions (37° C., 5% CO2). The supernatant is harvested for determination of IL-8 and TNFα concentrations by sandwich ELISA (Duo-set, R&D systems) and read on the fluorescence microplate reader (Varioskan® Flash, ThermoFisher Scientific). The concentration at 50% inhibition (IC50) of IL-8 and TNFα production is calculated from the dose response curve.

[1] = IL-8, read-out: IC50 Values for Inhibition of Cytokine Release, PBMCs IL-8
[2] = TNFα, read-out: IC50 Values for Inhibition of Cytokine Release, PBMCs TNFα

Sequence of GSK3α (P49840 whole entry): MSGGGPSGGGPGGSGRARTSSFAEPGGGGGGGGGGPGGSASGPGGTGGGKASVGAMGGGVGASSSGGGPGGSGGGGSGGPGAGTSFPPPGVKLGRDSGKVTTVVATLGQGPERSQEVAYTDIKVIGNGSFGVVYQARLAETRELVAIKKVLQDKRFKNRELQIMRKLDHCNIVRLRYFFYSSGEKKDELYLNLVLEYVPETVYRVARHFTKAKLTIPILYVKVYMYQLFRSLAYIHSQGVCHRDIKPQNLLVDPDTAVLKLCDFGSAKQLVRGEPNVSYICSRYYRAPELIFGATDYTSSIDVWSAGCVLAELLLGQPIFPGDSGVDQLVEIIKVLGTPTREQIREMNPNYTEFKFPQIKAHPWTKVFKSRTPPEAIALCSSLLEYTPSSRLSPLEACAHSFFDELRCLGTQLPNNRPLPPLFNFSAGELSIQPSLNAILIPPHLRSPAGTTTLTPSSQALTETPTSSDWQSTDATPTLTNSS

IC50 (GSK3α)	SMILES	IC50 (PBMCs; [1])	IC50 (PBMCs; [2])
183 nM	CC(C)(C)c1cc(NC(=O)Nc2ccc(Oc3ccnc(Nc4ccccc4)n3)c3ccccc23)n(-c2ccc(CP(C)(C)=O)cc2)n1 [Example 6, 1-(3-(tert-Butyl)-1-(4-((dimethylphosphoryl)methyl)phenyl)-1H-pyrazol-5-yl)-3-(4-((2-(phenylamino)pyrimidin-4-yl)oxy)naphthalen-1-yl)urea]	6.4 nM	2.5 nM
486 nM	CC(C)(C)c1cc(NC(=O)Nc2ccc(Oc3ccnc(Nc4ccc5[nH]ncc5c4)n3)c3ccccc23)n(-c2ccc(P(C)(C)=O)cc2)n1 [Example 7, 1-(4-((2-((1H-Indazol-5-yl)amino)pyrimidin-4-yl)oxy)naphthalen-1-yl)-3-(3-(tert-butyl)-1-(4-(dimethylphosphoryl)phenyl)-1H-pyrazol-5-yl)urea]	6.7 nM	2.5 nM
849 nM	CC(C)(C)c1cc(NC(=O)Nc2ccc(Oc3ccnc(Nc4ccccc4)n3)c3ccccc23)n(-c2ccc(P3(=O)CCCC3)cc2)n1 [Example 8, 1-(3-(tert-Butyl)-1-(4-(1-oxidophospholan-1-yl)phenyl)-1H-pyrazol-5-yl)-3-(4-((2-(phenylamino)pyrimidin-4-yl)oxy)naphthalen-1-yl)urea]	17.2 nM	4.8 nM
684 nM	CC(C)(C)c1cc(NC(=O)Nc2ccc(Oc3ccnc(Nc4ccc5[nH]ncc5c4)n3)c3ccccc23)n(-c2cccc(P(C)(C)=O)c2)n1 [Example 10, 1-(4-((2-((1H-Indazol-5-yl)amino)pyrimidin-4-yl)oxy)naphthalen-1-yl)-3-(3-(tert-butyl)-1-(3-(dimethylphosphoryl)phenyl)-1H-pyrazol-5-yl)urea]	13.7 nM	4 nM
205 nM	CC(C)(C)c1cc(NC(=O)Nc2ccc(Oc3ccnc(Nc4ccc5c(c4)NC(=O)C5)n3)c3ccccc23)n(-c2cccc(P(C)(C)=O)c2)n1 [Example 11]	16.2 nM	2.7 nM
73 nM	CC(C)(C)c1cc(NC(=O)Nc2ccc(Oc3ccnc(Nc4ccc5onc(N)c5c4)n3)c3ccccc23)n(-c2cccc(P(C)(C)=O)c2)n1 [Example 12]	8.5 nM	1.8 nM
208 nM	Cc1cc(Nc2nccc(Oc3ccc(NC(=O)Nc4cc(C(C)(C)C)nn4-c4cccc(P(C)(C)=O)c4)c4ccccc34)n2)cc2cn[nH]c12 [Example 13, 1-(3-(tert-Butyl)-1-(3-(dimethylphosphoryl)phenyl)-1H-pyrazol-5-yl)-3-(4-((2-((7-methyl-1H-indazol-5-yl)amino)pyrimidin-4-yl)oxy)naphthalen-1-yl)urea]	3.4 nM	1.7 nM
294 nM	CC(C)(C)c1cc(NC(=O)Nc2ccc(Oc3ccnc(Nc4ccc5c(c4)NC(=O)C5)n3)c3ccccc23)n(-c2ccc(P(C)(C)=O)cc2)n1 [Example 14, 1-(3-(tert-Butyl)-1-(4-(dimethylphosphoryl)phenyl)-1H-pyrazol-5-yl)-3-(4-((2-((2-oxoindolin-6-yl)amino)pyrimidin-4-yl)oxy)naphthalen-1-yl)urea]	13.2 nM	4 nM
72 nM	CC(C)(C)c1cc(NC(=O)Nc2ccc(Oc3ccnc(Nc4cccc(C(=O)NCCN5CCOCC5)c4)n3)c3ccccc23)n(-c2cccc(P(C)(C)=O)c2)n1 [Example 16, 3-((4-((4-(3-(3-(tert-Butyl)-1-(3-(dimethylphosphoryl)phenyl)-1H-pyrazol-5-yl)ureido)-naphthalen-1-yl)oxy)pyrimidin-2-yl)amino)-N-(2-morpholinoethyl)benzamide]	8.3 nM	4.3 nM
74 nM	CC(C)(C)c1cc(NC(=O)Nc2ccc(Oc3ccnc(Nc4cccc(OCCN5CCOCC5)c4)n3)c3ccccc23)n(-c2ccc(P(C)(C)=O)cc2)n1 [Example 17, 1-(3-(tert-Butyl)-1-(4-(dimethylphosphoryl)phenyl)-1H-pyrazol-5-yl)-3-(4-((2-((3-(2-morpholinoethoxy)phenyl)amino)pyrimidin-4-yl)oxy)naphthalen-1-yl)urea]	5.4 nM	1.8 nM
168 nM	CC(C)(C)c1cc(NC(=O)Nc2ccc(Oc3ccnc(Nc4ccc(SCCO)cc4)n3)c3ccccc23)n(-c2ccc(P(C)(C)=O)cc2)n1 [Example 18, 1-(3-(tert-Butyl)-1-(4-(dimethylphosphoryl)phenyl)-1H-pyrazol-5-yl)-3-(4-((2-((4-((2-hydroxyethyl)thio)phenyl)amino)pyrimidin-4-yl)oxy)naphthalen-1-yl)urea]	7.2 nM	2.9 nM
76 nM	CC(C)(C)c1cc(NC(=O)Nc2ccc(Oc3ccnc(Nc4ccccc4)n3)c3ccccc23)n(-c2ccc(P(C)(=O)O)cc2)n1 [Example 19, (4-(3-(tert-Butyl)-5-(3-(4-((2-(phenylamino)pyrimidin-4-yl)oxy)naphthalen-1-yl)ureido)-1H-pyrazol-1-yl)phenyl)(methyl)phosphinic acid]	407 nM	
68 nM	CC(C)(C)c1cc(NC(=O)Nc2ccc(Oc3ccnc(Nc4ccc5onc(N)c5c4)n3)c3ccccc23)n(-c2ccc(P(C)(C)=O)cc2)n1 [Example 20, 1-(4-((2-((3-Aminobenzo[d]isoxazol-5-yl)amino)pyrimidin-4-yl)oxy)naphthalen-1-yl)-3-(3-(tert-butyl)-1-(4-(dimethylphosphoryl)phenyl)-1H-pyrazol-5-yl)urea]	9 nM	
293 nM	CC(C)(C)c1cc(NC(=O)Nc2ccc(Oc3ccnc(Nc4cccc(C(=O)NCCN5CCOCC5)c4)n3)c3ccccc23)n(-c2ccc(P(C)(C)=O)cc2)n1 [Example 24, 3-((4-((4-(3-(3-(tert-Butyl)-1-(4-(dimethylphosphoryl)phenyl)-1H-pyrazol-5-yl)ureido)-naphthalen-1-yl)oxy)pyrimidin-2-yl)amino)-N-(2-morpholinoethyl)benzamide]	26.3 nM	
163 nM	CC(C)(C)c1cc(NC(=O)Nc2ccc(Oc3ccnc(Nc4ccc(P(C)(C)=O)cc4)n3)c3ccccc23)n(-c2ccc(P(C)(C)=O)cc2)n1 [Example 25, 1-(3-(tert-Butyl)-1-(4-(dimethylphosphoryl)phenyl)-1H-pyrazol-5-yl)-3-(4-((2-((4-(dimethyl-phosphoryl)phenyl)amino)pyrimidin-4-yl)oxy)naphthalen-1-yl)urea]	14.4 nM	
8130 nM	CC(C)(C)c1cc(NC(=O)Nc2ccc(Oc3ccnc(N4CCC[C@H]4CO)n3)c3ccccc23)n(-c2ccc(P(C)(C)=O)cc2)n1 [Example 26, (S)-1-(3-(tert-Butyl)-1-(4-(dimethylphosphoryl)phenyl)-1H-pyrazol-5-yl)-3-(4-((2-(2-(hydroxymethyl)pyrrolidin-1-yl)pyrimidin-4-yl)oxy)naphthalen-1-yl)urea]	189 nM	
979 nM	CC(C)(C)c1cc(NC(=O)Nc2ccc(Oc3ccnc(N4CCC[C@@H]4CO)n3)c3ccccc23)n(-c2ccc(P(C)(C)=O)cc2)n1 [Example 27, (R)-1-(3-(tert-Butyl)-1-(4-(dimethylphosphoryl)phenyl)-1H-pyrazol-5-yl)-3-(4-((2-(2-(hydroxymethyl)pyrrolidin-1-yl)pyrimidin-4-yl)oxy)naphthalen-1-yl)urea]	209 nM	
211 nM	CC(C)(C)c1cc(NC(=O)Nc2ccc(Oc3ccnc(NCCCO)n3)c3ccccc23)n(-c2ccc(P(C)(C)=O)cc2)n1 [Example 31, 1-(3-(tert-Butyl)-1-(4-(dimethylphosphoryl)phenyl)-1H-pyrazol-5-yl)-3-(4-((2-((3-hydroxy-propyl)amino)pyrimidin-4-yl)oxy)naphthalen-1-yl)urea]	90.2 nM	

SMILES	IC50 (GSK3α)	IC50 (PBMCs; [1])	IC50 (PBMCs; [2])
C[Si](C)(C)c1cc(NC(=O)Nc2ccc(Oc3ccnc(Nc4ccccc4)n3)c3ccccc23)n(-c2ccc(P(C)(C)=O)cc2)n1 [Example 5, 1-(1-(4-(Dimethylphosphoryl)phenyl)-3-(trimethylsilyl)-1H-pyrazol-5-yl)-3-(4-((2-(phenyl-amino)pyrimidin-4-yl)oxy)naphthalen-1-yl)urea]	429 nM	16.3 nM	4.3 nM
CCOP(C)(=O)c1ccc(-n2nc(C(C)(C)C)cc2NC(=O)Nc2ccc(Oc3ccnc(Nc4ccccc4)n3)c3ccccc23)cc1 (centres unmarked) [Example 9, Ethyl (4-(3-(tert-butyl)-5-(3-(4-((2-(phenylamino)pyrimidin-4-yl)oxy)naphthalen-1-yl)-ureido)-1H-pyrazol-1-yl)phenyl)(methyl)phosphinate]	1440 nM	24 nM	6.2 nM
